Like-named read-outs stand apart in the source and are kept apart here. One block for each compound: values may come before it.
Legend:
[1] = biological target: T1, human p38 kinase alpha (Homo sapiens, UniProt Q16539); assay: p38 kinase in vitro assay, phosphorylation of biotinylated PHAS-I with 32P-ATP; type: biochemical; settings: for inhibition at 1 µM: read-out: P38 alpha kinase % inhib @ conc.
T1 construct: GST (N, cleaved yes); made in house; host or cells: E. coli DH10B

[2] = test system: TNF-α, U937 human histiocytic lymphoma cell line; assay: LPS stimulation of TNF production by U937 cells; type: cell-based; settings: for inhibition at 1 µM: U-937, @ 1.0 uM; for U937 Cell IC50, uM or % inhib @ conc. (uM): % inhib: @ 10.0 uM; for U937 Cell % inhib @ conc. / U937 Cell % inhib @ conc. (uM): @ 1.0 uM
Protocol: Maintenance and Differentiation of the U937 Human Histiocytic Lymphoma Cell Line:
Fifty million cells in 100 ml media were induced to terminal monocytic differentiation by 24 hour incubation with 20 ng/ml phorbol 12-myristate 13-acetate (Sigma). The cells were washed by centrifugation (200×g for 5 min) and resuspended in 100 ml fresh medium. After 24-48 hours, the cells were harvested, centrifuged, and resuspended in culture medium at 2 million cells/ml.
LPS Stimulation of TNF Production by U937 Cells:
Compounds were prepared as 10 mM stock solutions in DMSO and diluted in culture medium to yield a final DMSO concentration of 0.1% in the cell assay. LPS (E coli, 100 ng/ml final concentration) was then added at a volume of 0.02 ml. After 4 hour incubation at 37° C., the amount of TNF-α released in the culture medium was quantitated by ELISA. Inhibitory potency is expressed as IC50 (μM).
In vitro whole cell assay for measuring the ability of the compounds to inhibit TNF production in human U937 cells stimulated with LPS are shown in the column identified as: • “U937 Cell IC50, uM or % inhib @ conc., (uM)”

[3] = Homo sapiens, U-937, TNF production, human U937 cells stimulated with LPS, read-out: U937 Cell IC50
[4] = in vitro P38-alpha kinase, read-out: P38 alpha kinase IC50
[5] = Homo sapiens, TNF production, LPS-stimulated U937 cells, read-out: U937 Cell % inhib @ conc.
[6] = TNF production, U937 cells stimulated with LPS
[7] = activated human p38 kinase alpha, PHAS-I substrate, 50 μM unlabeled ATP, read-out: p38 kinase IC50
[8] = Table 5, LPS-stimulated U937 cells, TNF-α, read-out: U937 Cell Assay IC50
[9] = TNF production, human U937 cells stimulated with LPS, read-out: U937 Cell IC50
[10] = in vitro P38-alpha kinase inhibition, read-out: P38 alpha kinase IC50
[11] = Homo sapiens, TNF production in human U937 cells stimulated with LPS, read-out: U937 Cell % inhib @ conc.

T1 sequence (Q16539 whole entry): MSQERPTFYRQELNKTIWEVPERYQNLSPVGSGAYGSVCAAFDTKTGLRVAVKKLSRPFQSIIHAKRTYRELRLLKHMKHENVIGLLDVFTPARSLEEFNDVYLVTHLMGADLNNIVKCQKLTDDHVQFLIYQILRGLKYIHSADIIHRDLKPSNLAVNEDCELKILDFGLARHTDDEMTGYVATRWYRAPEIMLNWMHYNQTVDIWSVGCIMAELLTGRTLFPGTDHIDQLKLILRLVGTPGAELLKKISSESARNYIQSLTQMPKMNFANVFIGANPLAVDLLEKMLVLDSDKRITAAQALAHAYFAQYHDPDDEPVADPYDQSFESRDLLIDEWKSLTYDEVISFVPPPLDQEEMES

SMILES: O=C(NCc1[nH]nc(-c2ccc(F)cc2)c1-c1ccncc1)c1ccccc1I [Example B-0005]
inhibition at 1 µM ([1]; @ 1.0 uM): 95%
IC50 [2, 3]: 2.97 µM

SMILES: CN(C)CCNC(=O)NCCCc1[nH]nc(-c2ccc(F)cc2)c1-c1ccncc1 [Example B-1302]
IC50 [1, 4]: 0.023 µM
inhibition at 1 µM [2, 5]: 11%

SMILES: Cc1[nH]nc(-c2ccc(C(F)(F)F)cc2)c1-c1ccncc1 [Example A-48]
IC50 [1, 7]: 1.8 µM
IC50 [2, 8]: 0.522 µM

SMILES: O=[N+]([O-])c1ccc(S(=O)(=O)NCc2[nH]nc(-c3ccc(F)cc3)c2-c2ccncc2)cc1 [Example B-0115]
P38 alpha kinase % inhib @ conc. ([1]; @ 1.0 uM): 47.0% @
U937 Cell % inhib @ conc. [2, 6]: 2.0% @

SMILES: O=C(NCCc1[nH]nc(-c2ccc(F)cc2)c1-c1ccncc1)NC1CC1c1ccccc1 (racemic) [Example B-0941]
P38 alpha kinase % inhib @ conc. (uM) ([1]; @ 1.0 uM): 81.0% @
U937 Cell % inhib @ conc. (uM) [2, 6]: 25.0% @

SMILES: CC(C)C(=O)NC(Cc1ccccc1)c1[nH]nc(-c2ccc(F)cc2)c1-c1ccncc1 (stereo not shown) [Example B-0831]
IC50 [1, 10]: 0.9 µM
IC50 [2, 3]: > 1 µM

SMILES: Cc1ccc(S(=O)(=O)NC(Cc2ccccc2)C(=O)NC(C)c2[nH]nc(-c3ccc(F)cc3)c2-c2ccncc2)cc1 (stereo not shown) [Example B-0560]
IC50 [1, 10]: 2.57 µM
inhibition at 1 µM [2, 11]: 31%

SMILES: CN(C)CCCNC(=O)NCCCc1[nH]nc(-c2ccc(F)cc2)c1-c1ccncc1 [Example B-1303]
IC50 [1, 4]: 0.08 µM
IC50 [2, 3]: > 1 µM

SMILES: COc1cccc(-c2n[nH]c(C)c2-c2ccncc2)c1 [Example A-44]
IC50 [1, 7]: < 0.1 µM
IC50 [2, 8]: 0.477 µM

SMILES: O=C(NCc1[nH]nc(-c2ccc(F)cc2)c1-c1ccncc1)c1ccc(F)c(F)c1 [Example B-0045]
inhibition at 1 µM ([1]; @ 1.0 uM): 94%
IC50 [2, 3]: 1.01 µM

SMILES: O=C(NCCc1[nH]nc(-c2ccc(F)cc2)c1-c1ccncc1)NC(=O)c1ccccc1 [Example B-0934]
P38 alpha kinase % inhib @ conc. (uM) ([1]; @ 1.0 uM): 67.0% @
U937 Cell % inhib @ conc. (uM) [2, 6]: 36.0% @

SMILES: O=C(NCc1[nH]nc(-c2ccc(F)cc2)c1-c1ccncc1)c1cccc(CCl)c1 [Example B-0065]
P38 alpha kinase % inhib @ conc. ([1]; @ 1.0 uM): 83% @
U937 Cell % inhib @ conc. [2, 6]: 21.0% @

SMILES: CC(NC(=O)NCc1ccccc1)c1[nH]nc(-c2ccc(F)cc2)c1-c1ccncc1 (stereo not shown) [Example B-0580]
IC50 [1, 10]: 2.23 µM
IC50 ([2]; TNF production in human U937 cells stimulated with LPS, read-out: U937 Cell IC50): 0.84 µM

SMILES: CC(C)c1cc(C(C)C)c(C(=O)NC(C)c2[nH]nc(-c3ccc(F)cc3)c2-c2ccncc2)c(C(C)C)c1 (stereo not shown) [Example B-0497]
IC50 [1, 10]: 0.44 µM
inhibition at 1 µM [2, 11]: 31%

SMILES: COc1ccc(CC(=O)NCCc2[nH]nc(-c3ccc(F)cc3)c2-c2ccncc2)cc1OC [Example B-0999]
P38 alpha kinase % inhib @ conc. (uM) ([1]; @ 1.0 uM): 61.0% @
U937 Cell % inhib @ conc. (uM) [2, 6]: 24.0% @

Second part, led by results:

P38 alpha kinase IC50, uM or % inhib @ conc. (uM): % inhib ([1]; @ 10.0 uM): 90.0% @
U937 Cell IC50, uM or % inhib @ conc. (uM): % inhib [2, 6]: 28.0% @
SMILES: Cc1c(-c2ccncc2)c(-c2ccc(F)cc2)nn1CC(=O)Nc1ccc(S(=O)(=O)C(F)F)cc1 [Example B-2446]

P38 alpha kinase % inhib @ conc. ([1]; @ 10.0 uM): 45.0% @
IC50 [2, 9]: > 10 µM
SMILES: CCOC(=O)CC[C@H](NC(=O)Cn1nc(-c2ccc(F)cc2)c(-c2ccncc2)c1C)C(=O)OCC [Example B-2360]

IC50 [1, 4]: 1.22 µM
SMILES: Cc1cccc(S(=O)(=O)N2CCC(c3[nH]nc(-c4ccc(F)cc4)c3-c3ccncc3)CC2)c1 [Example B-1467]
inhibition at 1 µM [2, 5]: 1%

P38 alpha kinase % inhib @ conc. ([1]; @ 100.0 uM): 62.0% @
IC50 [2, 9]: > 10 µM
SMILES: Cc1c(-c2ccncc2)c(-c2ccc(F)cc2)nn1CC(=O)N(C)CCN(C)C [Example B-2375]

IC50 [1, 4]: 3 µM
SMILES: Cc1c(-c2ccncc2)c(-c2ccc(F)cc2)nn1CC(=O)NCCCN1CCN(C)CC1 [Example B-2289]
inhibition at 10 µM ([2]; Homo sapiens, U-937, @ 10.0 uM, TNF production, LPS-stimulated U937 cells, read-out: U937 Cell % inhib @ conc.): 30%

P38 alpha kinase IC50, uM or % inhib @ conc. (uM): % inhib ([1]; @ 10.0 uM): 32.0% @
U937 Cell IC50, uM or % inhib @ conc. (uM): % inhib [2, 6]: 28.0% @
SMILES: Cc1c(-c2ccncc2)c(-c2ccc(F)cc2)nn1CC(=O)N(C)CCN1CCOCC1 [Example B-2395]

IC50 [1, 4]: 0.35 µM
IC50 [2, 3]: > 1 µM
SMILES: CS(=O)(=O)c1ccc(CNC(=O)NCCCc2[nH]nc(-c3ccc(F)cc3)c2-c2ccncc2)cc1 [Example B-1312]

P38 alpha kinase IC50, uM or % inhib @ conc. (uM): % inhib ([1]; @ 10.0 uM): 43.0% @
IC50 ([2]; TNF production, U937 cells stimulated with LPS, read-out: U937 Cell IC50, uM or % inhib @ conc. (uM): IC50): > 10 µM
SMILES: Cc1c(-c2ccncc2)c(-c2ccc(F)cc2)nn1CC(=O)N(C)CCn1ccnc1 [Example B-2393]
